Consider 7 compounds from patent US20250092065A1, “2-(INDAZOL-5-YL)-6-(PIPERIDIN-4-YL)-1,7-NAPHTHYRIDINE DERIVATIVES AND RELATED COMPOUNDS AS MODULATORS FOR SPLICING NUCLEIC ACIDS AND FOR THE TREATMENT OF PROLIFERATIVE DISEASES” (REMIX THERAPEUTICS INC., priority 2022, published 2025).

As usually defined, the AC50 is the concentration at which the activity in the assay is half-maximal. As usually defined, the IC50 is the concentration needed to halve the response being measured.

Read-outs that look alike come from different tables or passages of the source.

For one series, the system named is HTT mRNA. Description: RT-qPCR splicing assay, HTT mRNA canonical (CJ) and alternative (AJ) junction. The class given is cell-based, human. Particulars: Homo sapiens; for AC50: HTT alternative junction mRNA, read-out: HTT AJ (increase in AJ mRNA, AC50). The gist of the method:
(§1)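 A673 or K562 cells treated 24 h at 37 °C with 11-point 3-fold dilutions (top final 10 uM, DMSO ≤0.25%). Lysates analysed by one-step RT-qPCR for canonical (CJ) and alternative-exon (AJ) junctions, normalized to GAPDH, GUSB or PPIA. ΔΔCt vs DMSO, RQ = 2^(−ΔΔCt), expressed as percentage response.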
For orientation: Real-time PCR tracks product formation cycle by cycle.

The next series has as its system MYB mRNA. The series can be described thus: RT-qPCR splicing assay, MYB mRNA canonical (CJ) and alternative (AJ) junction. Type of series: cell-based, human. Particulars: Homo sapiens; for AC50: MYB alternative junction mRNA, read-out: MYB AJ (increase in AJ mRNA, AC50). The gist of the method:
as §1

The next series concerns SMN2 mRNA. Description: RT-qPCR splicing assay, SMN2 mRNA. Type of series: cell-based, human. Particulars: Homo sapiens, canonical junction qPCR panel, Table 4; read-out: SMN2 IC50 (decrease in CJ mRNA levels). An outline of the steps:
as §1

For another series, the system named is MYB. Description: HiBiT protein abundance assay, MYB (K562 HiBiT knock-in). Type of series: cell-based, human. Particulars: HiBiT knock-in K562 cells, 24 hours, top dose 10 μM. The gist of the method: (§2)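 Luminescence readout: Nano-Glo HiBiT lytic detection after 24 h compound exposure of K562 HiBiT knock-in cells, 10000 cells/well. Dosing 10-pt, 3-fold, top 10 μM final. % response vs untreated parental K562 and DMSO controls; 4PL fit, IC50 = concentration giving 50% protein abundance.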

Another series has as its system HTT. The series can be described thus: HiBiT protein abundance assay, HTT (K562 HiBiT knock-in). Particulars: HiBiT knock-in K562 cells, 24 hours, top dose 10 μM. Type of series: cell-based, human. An outline of the steps: as §2
(HiBiT is a short tag that completes a luciferase, so light tracks the accessible tagged protein.)

For a further series, the system named is Target C. Description: HiBiT protein abundance assay, Target C (K562 HiBiT knock-in). Type of series: cell-based, human. Particulars: HiBiT knock-in K562 cells, 24 hours, top dose 10 μM. An outline of the steps: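 K562 HiBiT knock-in cells (10000/well) were treated 24 h at 37° C with a 10-point 3-fold dilution series (top 10 μM final, ≤0.25% DMSO). HiBiT luminescence was read after lytic LgBiT detection. Percent response used unmodified K562 and DMSO-treated knock-in controls, and IC50 came from a four-parameter fit at 50% of untreated.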

For another series, the system named is K562 cells. The series can be described thus: Cell Titer Glo 2.0 cell viability (toxicity) assay, K562. Particulars: 500 cells/well, 72 hours. On the technique in general: Cellular ATP, detected with luciferase, serves as a proxy for viable cell number.
Setting [1] is: HTT canonical junction mRNA, RT-qPCR, read-out: HTT CJ (decrease in CJ mRNA levels, IC50).
Where [2] appears, read: canonical junction qPCR panel, Table 4, read-out: HTT IC50 (decrease in CJ mRNA levels).
Setting [3] is: MYB canonical junction mRNA, RT-qPCR, read-out: MYB CJ (decrease in CJ mRNA levels, IC50).
The mark [4] stands for this setting: canonical junction qPCR panel, Table 4, read-out: MYB IC50 (decrease in CJ mRNA levels).

In the case of `Cn1cc2cc(-c3ccc4nc(OC5CNC5)ccc4n3)c(O)cc2n1` [Compound 159], the half-maximal activity concentration (AC50) in the series on HTT mRNA (RT-qPCR) and with MYB mRNA (RT-qPCR) was 1000 to 10000 nM in each case. The IC50 in the series on HTT mRNA (setting [1]) is 1000 to 10000 nM; with HTT mRNA (setting [2]) it was 1000 to 10000 nM; with MYB mRNA (setting [3]), 1000 to 10000 nM; in the series with MYB mRNA (setting [4]), 1000 to 10000 nM; in the series on SMN2 mRNA, 100 to 1000 nM; in the series on MYB it was 100 to 1000 nM. Also, the figures for the IC50 in the series on HTT and with Target C were 100 to 1000 nM and 1000 to 10000 nM, respectively. In the series on K562 cells, the “Effect of Exemplary Compounds on Cell Viability, K562” value (“Effect of Exemplary Compounds” below) was “C (C represents 1000-9999 nM)”.
As to `Cn1cc2cc(-c3ccc4nc(N5CC[C@]67CCN[C@H]6CC[C@H]57)ccc4n3)c(O)cc2n1` [Compound 160], the AC50 with HTT mRNA (RT-qPCR) and in the series with MYB mRNA (RT-qPCR) was 100 to 1000 nM each time. Besides, the IC50 is 100 to 1000 nM in the series on HTT mRNA (setting [1]); 100 to 1000 nM in the series on HTT mRNA (setting [2]); 100 to 1000 nM in the series with MYB mRNA (setting [3]); 100 to 1000 nM with MYB mRNA (setting [4]); below 100 nM in the series on SMN2 mRNA; 100 to 1000 nM in the series on MYB. The IC50 in the series with HTT and in the series on Target C was 100 to 1000 nM each time. Moreover, in the series on K562 cells, the “Effect of Exemplary Compounds” value is “B (B represents 100-1000 nM)”.
With `COc1cc2ccncc2cc1-c1ccc2nc(N3CCC(NC(C)(C)C)C3)ccc2n1` (centres unmarked) [Compound 161], the half-maximal activity concentration (AC50) with HTT mRNA (RT-qPCR) and in the series with MYB mRNA (RT-qPCR) was above 10000 nM each time. The 50% inhibitory concentration (IC50) in the series on HTT mRNA (setting [1]) was above 10000 nM; with HTT mRNA (setting [2]), above 10000 nM; in the series with MYB mRNA (setting [3]), above 10000 nM; in the series with MYB mRNA (setting [4]), above 10000 nM; in the series on SMN2 mRNA it was 1000 to 10000 nM; with MYB, above 10000 nM. Further, the IC50 with HTT and in the series with Target C was above 10000 nM each time. Besides, the “Effect of Exemplary Compounds” value with K562 cells was “C (C represents 1000-9999 nM)”.
As for `Cn1cc2cc(-c3ccc4nc(N5CCC56CCNC6)ccc4n3)c(O)cc2n1` (centres unmarked) [Compound 162], the AC50 in the series with HTT mRNA (RT-qPCR) and in the series with MYB mRNA (RT-qPCR) was above 10000 nM each time. In addition, the concentration for half-maximal inhibition (IC50) is above 10000 nM in the series with HTT mRNA (setting [1]); above 10000 nM in the series on HTT mRNA (setting [2]); above 10000 nM in the series on MYB mRNA (setting [3]); above 10000 nM with MYB mRNA (setting [4]); 1000 to 10000 nM with SMN2 mRNA; above 10000 nM with MYB. In addition, the IC50 with HTT and in the series on Target C was above 10000 nM throughout. For the same compound, in the series with K562 cells, the “Effect of Exemplary Compounds” value is “C (C represents 1000-9999 nM)”.
Regarding `Cn1cc2cc(-c3ccc4nc(N5CCC56CCCNC6)ccc4n3)c(O)cc2n1` (centres unmarked) [Compound 163], the AC50 in the series with HTT mRNA (RT-qPCR) was above 10000 nM; in the series with MYB mRNA (RT-qPCR) it was 1000 to 10000 nM. In addition, the IC50 is above 10000 nM with HTT mRNA (setting [1]); above 10000 nM in the series with HTT mRNA (setting [2]); 1000 to 10000 nM in the series with MYB mRNA (setting [3]); 1000 to 10000 nM with MYB mRNA (setting [4]); 100 to 1000 nM in the series with SMN2 mRNA; 1000 to 10000 nM with MYB. Moreover, the IC50 is 1000 to 10000 nM with HTT and above 10000 nM in the series on Target C. Besides, in the series on K562 cells, the “Effect of Exemplary Compounds” value is recorded as “C (C represents 1000-9999 nM)”.
In the case of `Cn1cc2cc(-c3ccc4nc(N5CCC56CCNCC6)ccc4n3)c(O)cc2n1` [Compound 164], the concentration at half-maximal activity (AC50) in the series with HTT mRNA (RT-qPCR) and with MYB mRNA (RT-qPCR) was 100 to 1000 nM in each case. Moreover, the IC50 in the series on HTT mRNA (setting [1]), in the series on HTT mRNA (setting [2]), in the series with MYB mRNA (setting [3]), in the series on MYB mRNA (setting [4]), in the series with SMN2 mRNA and with MYB was 100 to 1000 nM each time. Besides, the IC50 in the series on HTT and with Target C was 100 to 1000 nM in each case. Also, the “Effect of Exemplary Compounds” value in the series with K562 cells is “B (B represents 100-1000 nM)”.
On to `Cn1cc2cc(-c3ccc4nc(N5CC(NC(C)(C)C)C5)ccc4n3)c(O)cc2n1` [Compound 165], for which the AC50 in the series on HTT mRNA (RT-qPCR) and in the series on MYB mRNA (RT-qPCR) was 1000 to 10000 nM in each case. Also, the 50% inhibitory concentration (IC50) with HTT mRNA (setting [1]), with HTT mRNA (setting [2]), in the series on MYB mRNA (setting [3]), in the series with MYB mRNA (setting [4]), in the series on SMN2 mRNA and in the series with MYB was 1000 to 10000 nM throughout. Besides, the IC50 in the series on HTT and with Target C was 1000 to 10000 nM throughout. In addition, the “Effect of Exemplary Compounds” value in the series on K562 cells is “B (B represents 100-1000 nM)”.
